Laboratory results published in patent publication US8604042B2, “Bi-aryl meta-pyrimidine inhibitors of kinases” (TargeGen, Inc., priority 2005, dated 2013).
pEC50, pIC50: −log10 of the molar value. Entries after “also recorded” stand apart in the source; their conditions may differ. Where two headings read alike, the source gives them in different places.

Tests used:
[1] = test system: EOL-1, a chronic eosinophilic leukemia (CEL) derived line (FIP1L1-PDFRA-positive); assay: XTT cell proliferation assay, EOL-1; format: cell-based; conditions: for pIC50: Homo sapiens, EOL1, XTT assay, read-out: Cellular IC50 EOL-1
HEL cells = assay: XTT cell proliferation assay, HEL cells; format: cell-based; conditions: Homo sapiens
[2] = test system: HMC-1, a mast cell leukemia line (KITD816V-positive); assay: XTT cell proliferation assay, HMC-1; format: cell-based
[3] = test system: bleomycin induced dermal fibrosis; assay: Mouse model of bleomycin induced dermal fibrosis; format: in vivo; conditions: low dose (30 mg/kg, bid) and high dose (100 mg/kg, bid)
Protocol: In vivo studies using compound CLXII were conducted in a mouse model of bleomycin induced dermal fibrosis. FIG. 41 indicates the results of administering a low dose (30 mg/kg, bid) and a high dose (100 mg/kg, bid) of CLXII.

[4] = test system: fibroblasts from sclerotic patients and healthy fibroblasts; assay: Extracellular matrix protein production in fibroblasts (real-time PCR); format: cell-based, human
Protocol: An in-vitro study was conducted using compound CLXII to examine the production of extracellular matrix proteins responsible for fibrosis in fibroblasts from sclerotic patients and healthy fibroblasts.

[5] = Ocular exposure after eye drop administration; format: in vivo; conditions: mouse, bilateral topical instillation of 0.1% formulation QDX1, 2 hr
Protocol: Exposure data of compounds at 0.1% via eye drop administration:
On topical dosing of compounds formulated as 0.1% doses in 0.2% tyloxapol/1% HPMC/4% Mannitol, exposure levels in found in back of the eye tissues of the mouse are shown at two different time points, namely at 2 h and at 7 h.

[6] = Ocular exposure after eye drop administration; format: in vivo; conditions: mouse
BCR-ABL+K562 cells = assay: Growth of K562 cells; format: cell-based; conditions: Homo sapiens, control experiments
Description: (§1) […]. data not shown), reflecting their dependence on signaling by wild type JAK2. […].

CTLL-2 cells = assay: IL-2-induced JAK3-dependent proliferation of CTLL-2 cells; format: cell-based; conditions: Mus musculus
Protocol: (§2) HEL, CTLL-2 & normal human dermal fibroblasts (NHDF) were from the American Tissue Culture Collection Rockville, Md.). BaF/3 cells were obtained from DKFZ Cancer Research Center (Heidelberg, Germany).
(§3) BaF/3, HEL & NHDF cells were grown in RPMI 1640 medium (Gibco BRL, Gaithersburg, Md.) supplemented with penicillin, streptomycin, L-glutamine, and 10% fetal bovine serum (FBS). CTLL-2 cells were grown in the same media further supplemented with 20 U/mL recombinant IL-2 (Hoffmann-LaRoche, Nutley, N.J.). Plasmid containing the human JAK2 coding sequence was purchased from Invitrogen (Madison, Wis.). JAK2^V617F cDNA was generated by using site-directed mutagenesis to introduce the V617F mutation into the human JAK2 coding sequence followed by verification using two-directional sequencing. […]
(§4) Cell proliferation assay was performed using the XTT cell proliferation kit according to the manufacturer's instructions (Roche, Alameda, Calif.). […] The colored formazan product that is formed was measured spectrophotometrically using the Vmax spectrophotometer (Molecular Devices, Sunnyvale, Calif.) at 450 nm with correction at 650 nm. IC50 values were determined using the GraphPad Prism 4.0 software (San Diego, Calif.), wherefore OD values were plotted on y-axis (linear scale) and concentration (mM) on the x-axis (log scale).

[7] = test system: normal human dermal fibroblasts (NHDF); assay: XTT cell proliferation assay, normal human dermal fibroblast control; format: cell-based; conditions: Control data: Normal human dermal fibroblast control
Protocol: as §2, §3, §4

STAT5 phosphorylation = STAT5 phosphorylation in Ba/F3-V617F cells; format: cell-based; conditions: data not shown
Protocol: Protein concentration was determined using the BCA method (Pierce, Rockford, Ill.) and 100 μg of total cellular protein of each sample in 1× Laemmli buffer were subjected to Western blot analysis. The protein blot was probed with an anti-phospho-STAT5 (Tyr694/699) (Upstate Biotechnology, Charlottesville, Va.), subsequently stripped and re-probed with an anti-STAT5 antibody (Cell Signaling Technology, Danvers, Mass.). The phospho-STAT5 or STAT5 protein was visualized by the enhanced chemoluminescence method (Pierce). In vivo signaling studies were done in a similar fashion. […] Spleens were harvested 7 h after dosing and quickly homogenized in a FastPrep machine (Qbiogen, Irvine, Calif.). 100 μg of each spleen homogenate were subjected to Western blot analysis. The protein […] anti-phospho-STAT5 (Tyr694/699) (Upstate Biotechnology, Charlottesville, Va.), subsequently stripped and re-probed with an anti-STAT5 antibody (Cell Signaling Technology, Danvers, Mass.). The phospho-STAT5 or STAT5 protein was visualized by the enhanced chemoluminescence method (Pierce). In vivo signaling studies were done in a similar fashion. […] Spleens were harvested 7 h after dosing and quickly homogenized in a FastPrep machine (Qbiogen, Irvine, Calif.). 100 μg of each spleen homogenate were subjected to Western blot analysis. […]

[8] = test system: BaF/3 cells expressing JAK2^V617F and GFP; assay: JAK2V617F-driven circulating tumor model in SCID mice; format: in vivo, mouse; conditions: oral 10, 30 or 100 mg/kg; day 11; FACS, GFP positive cells
[9] = test system: phospho-JAK2V617F, phospho-STAT5, phospho-STAT3; assay: Phosphorylation of JAK2V617F, STAT5 and STAT3 in HEL cells; format: cell-based; conditions: Homo sapiens, read-out: IC50, levels of phospho-JAK2V617F, phospho-STAT5, phospho-STAT3
parental Ba/F3 cells = assay: Growth of parental Ba/F3 cells; format: cell-based; conditions: Mus musculus, BaF3; data not shown
Description: as §1

[10] = target: T1, Ba/F3 T674I (FIP1L1-PDFRA-T674I) (Homo sapiens, UniProt P16234, T674I, cells depend on it); assay: XTT cell proliferation assay, Ba/F3 T674I; format: cell-based
T1 construct: fused on or other part: Q6UN15 (Pre-mRNA 3'-end-processing factor FIP1)
T1 sequence (P16234 whole entry T674I, the tested form may be a part): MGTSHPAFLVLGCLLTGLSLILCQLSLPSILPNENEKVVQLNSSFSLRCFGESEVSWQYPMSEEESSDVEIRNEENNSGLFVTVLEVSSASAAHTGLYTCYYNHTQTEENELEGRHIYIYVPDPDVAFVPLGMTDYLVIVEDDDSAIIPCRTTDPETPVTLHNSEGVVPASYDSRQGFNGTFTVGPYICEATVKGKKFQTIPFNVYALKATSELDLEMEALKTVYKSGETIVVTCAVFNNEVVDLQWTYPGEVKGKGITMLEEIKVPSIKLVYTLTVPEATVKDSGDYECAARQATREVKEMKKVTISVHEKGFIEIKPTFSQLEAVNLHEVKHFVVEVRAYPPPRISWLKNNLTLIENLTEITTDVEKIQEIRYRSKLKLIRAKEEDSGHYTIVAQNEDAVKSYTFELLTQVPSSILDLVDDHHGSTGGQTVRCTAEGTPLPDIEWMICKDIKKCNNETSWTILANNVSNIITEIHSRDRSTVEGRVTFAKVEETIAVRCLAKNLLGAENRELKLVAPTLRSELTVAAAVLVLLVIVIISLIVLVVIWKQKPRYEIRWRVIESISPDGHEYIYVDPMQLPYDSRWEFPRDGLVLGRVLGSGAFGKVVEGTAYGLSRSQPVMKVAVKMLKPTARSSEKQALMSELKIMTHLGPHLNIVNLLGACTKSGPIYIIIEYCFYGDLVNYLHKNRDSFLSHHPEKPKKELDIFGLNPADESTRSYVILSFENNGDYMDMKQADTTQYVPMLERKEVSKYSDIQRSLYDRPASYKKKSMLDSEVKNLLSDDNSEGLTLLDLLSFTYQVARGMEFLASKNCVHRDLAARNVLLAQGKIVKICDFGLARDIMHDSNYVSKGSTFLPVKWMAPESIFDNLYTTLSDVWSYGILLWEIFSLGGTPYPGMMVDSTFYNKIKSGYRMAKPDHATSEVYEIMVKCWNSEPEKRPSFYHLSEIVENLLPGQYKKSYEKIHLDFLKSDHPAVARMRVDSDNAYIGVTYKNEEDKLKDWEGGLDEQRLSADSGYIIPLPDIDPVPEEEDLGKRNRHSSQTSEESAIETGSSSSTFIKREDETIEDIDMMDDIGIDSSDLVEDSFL

## Cc1cnc(Nc2ccc(OCCN3CCCC3)cc2)nc1Nc1cccc(S(=O)(=O)NC(C)(C)C)c1 [LVII]
[1]
  pIC50: > 12.00
HEL cells; XTT assay, Table 19, read-out: Cellular IC50 HEL
  pIC50: 6.52
[2]; Homo sapiens, HMC1, read-out: Cellular IC50 HMC-1 (nM)
  IC50: 355 nM

## Cc1ccc(Nc2nc(Nc3ccc(N4CCN(C)CC4)cc3)ncc2C)cc1C [CLXII]
[3]
  bleomycin induced dermal fibrosis: prevention of bleomycin induced dermal fibrosis
[4]; real-time PCR, 5% FCS, sclerotic vs normal fibroblasts
  basal synthesis of collagen 1a1: inhibition of basal synthesis of collagen 1a1 in sclerotic fibroblasts, but not normal, fibroblasts; also recorded: inhibition of basal synthesis of collagen 1a1 in sclerotic, but not normal, fibroblasts
[4]; sclerotic or normal fibroblasts
  basal synthesis of fibronectin 1: dose not inhibit basal synthesis of fibronection-1 in either sclerotic or normal fibroblasts
[4]; sclerotic vs normal fibroblasts
  basal synthesis of collagen 1a2: some inhibition of basal synthesis of collagen 1a2 in sclerotic fibroblasts, but not normal, fibroblasts

## COc1cc(Nc2nc(Nc3ccc(OCCN4CCCC4)cc3)ncc2C)ccc1Cl [XVII]
[5]; cornea, read-out: Concentration (nM) Cornea
  concentration at 2 h: 8840 nM
[5]; retina, read-out: Concentration (nM) retina
  concentration at 2 h: 495 nM
[5]; sclera/choroid, read-out: Concentration (nM) Sclera/choroid
  concentration at 2 h: 6040 nM
[6]; cornea, bilateral topical instillation of 0.1% formulation QDX1, read-out: Concentration (nM) Cornea
  concentration at 6 h: 3780 nM
[6]; retina, bilateral topical instillation of 0.1% formulation QDX1, read-out: Concentration (nM) retina
  concentration at 6 h: 351 nM
[6]; sclera/choroid, bilateral topical instillation of 0.1% formulation QDX1, read-out: Concentration (nM) Sclera/choroid
  concentration at 6 h: 2970 nM

## Cc1cnc(Nc2ccc(N3CCN(C)CC3)cc2)nc1Nc1cccc(S(=O)(=O)NC(C)(C)C)c1 [XLV]
BCR-ABL+K562 cells
  pIC50: 6.00
CTLL-2 cells; Control data: IL-2-induced JAK3-dependent proliferation
  pEC50: 5.47
CTLL-2 cells; IL-2 dependent cytotoxic T-cells, FIG. 32B, read-out: IC50, growth of CTLL-2 cells
  pIC50: 5.47
[7]
  pEC50: 5.19
HEL cells; XTT, 72 hour incubation
  pEC50: 6.57
HEL cells; homozygous for the JAK2V617F allele, FIG. 32C, read-out: IC50, HEL cells
  pIC50: 6.52
STAT5 phosphorylation
  pIC50: 6.52
[8]
  number of circulating JAK2^V617F tumor cells: reduces the number of circulating JAK2^V617F tumor cells in a dose-dependent manner
[9]
  pIC50: 6.22 to 6.52
Parental Ba/F3 cells
  pIC50: 6.33

## CNC(=O)c1cc(Oc2ccc(NC(=O)Nc3ccc(Cl)c(C(F)(F)F)c3)cc2)ccn1 [Sorafenib]
[1]
  concentrations inhibiting EOL-1 growth: picomolar concentrations
  pIC50: 11.70
[2]
  sensitivity of HMC-1 growth: only a limited effect
[2]; Homo sapiens, HMC1, XTT assay, read-out: Cellular IC50 HMC-1
  pIC50: 5.40
[10]
  concentrations inhibiting growth of Ba/F3 cells harboring FIP1L1-PDFGRA-T674I: nanomolar concentrations
[10]; XTT assay, read-out: Cellular IC50 Ba/F3 T674I
  GI50: 16 nM
